The subject of data set [1] is ST070 patient derived xenograft. The data set can be described thus: ST070 ovarian PDX model. The format is in vivo, nu/nu mice. How it is done: (§1) Patient derived xenograft (PDX) studies were performed at South Texas Accelerated Research Therapeutics (START, San Antonio, TX). Patient tumor tissues were obtained with patients’ informed consent and PDX models were generated after multiple generations in mice. […] Tumor fragments were harvested from host animals and implanted into 6–12 weeks old female athymic nude mice (Crl:NU(NCr)-Foxn1nu). Intravenous treatments were initiated when ST502 (triple negative breast) tumors were approximately 112–333 mm^3, ST738 (triple negative breast) tumors were 112–300 mm^3, ST040 (endometrial) tumors were 78–333 mm^3, and ST070 (ovarian) tumors were 131–266 mm^3 in volume.
(§2) Animals in the control groups received no treatment. Growth of each subcutaneous tumor was followed by measuring the tumor 3 times per week during treatment and twice per week thereafter, until a maximum volume of 1,500 mm^3 for mice and 15,000 mm^3 for rats were reached. Tumors were measured in two perpendicular directions using Vernier calipers, and their volumes were calculated as V = 0.5 × L × W^2, where L = measurement of longest axis in mm and W = measurement of axis perpendicular to L in mm[16]. As a general measure of gross toxicity, changes in body weights were determined on the same schedule as tumor volume measurements. Survival of animals was monitored daily. Animals that were moribund (or unable to reach food or water) were euthanized by CO2 asphyxiation. Individual tumor response endpoints were reported in terms of tumor volume change. A partial response (PR) was defined as volume regression > 50% but with measurable tumor (> 2 mm^3) remaining at all times. Complete response (CR) was defined as a disappearance of measurable tumor mass (< 2 mm^3) at some point within 90 days after tumor implantation. Cures were defined as CRs without tumor regrowth within the 90-day study time frame.

Data set [2] has as its system KB-PR tumors. The data set can be described thus: Paclitaxel-resistant KB-PR tumor xenograft in nu/nu mice. The format is in vivo. How it is done: (§3) Four- to eight-week-old female nu/nu mice and rats (Harlan Sprague Dawley, Inc.), were maintained on a standard 12-h light–dark cycle and fed ad libitum with a low-folate chow (Harlan Teklad diet #TD.01013, Madison, WI) for the duration of dosing and 1 week post dosing schedule. Mice and rats were then switched to Teklad Global 18% Rodent diet (Harlan Teklad diet #2018S) during the monitoring phase of the study. Parental KB, KB-CR2000 or KB-PR10 cells (1 × 10^6/100 µL per nu/nu mouse and 5 × 10^6/200 µL per nu/nu rat) were injected into the subcutis of the dorsal medial area. Mice were divided into groups of 5 and rats in groups of 3–4, and freshly prepared test articles were injected through the lateral tail vein under sterile conditions in a volume of 200 μL/20 g of PBS. In mice, intravenous treatments typically initiated on day 7 PTI when KB tumors were approximately 111–168 mm^3 in volume, on day 5 PTI when the KB-PR tumors were about 205–243 mm^3, and on day 6 PTI when the KB-CR tumors were around 98 to 168 mm^3. Treatments in rats were started on day 10 PTI when KB tumors were approximately 412–704 mm^3 in volume.
as §2

In data set [3] the test system is ST040 patient derived xenograft. In words: ST040 endometrial PDX model. In kind it is in vivo, nu/nu mice. How it is done: as §1, §2
The test system of data set [4] is ST502 patient derived xenograft. The data set can be described thus: ST502 triple negative breast PDX model. In kind it is in vivo, nu/nu mice. The procedure: as §1, §2
The test system of data set [5] is ST738 patient derived xenograft. The data set can be described thus: ST738 triple negative breast PDX model. The format is in vivo, nu/nu mice. Particulars: Eribulin mesylate 1 mg/kg SIW x 2 weeks, n=7. How it is done:
as §1, §2

A short description of data set [6]: Plasma protein binding (ultrafiltration), across all species. In kind it is in vitro ADME. Particulars: rat, mouse, dog, human, 37 °C, read-out: plasma protein binding, range across all species. How it is done:
Plasma ultrafiltration was used for determination of free and protein bound fractions of EC2629 and EC2491. Samples were extracted and analyzed using fit-for-purpose bioanalytical methods. Briefly, 500 nM EC2629 or EC2491 was spiked into plasma maintained at 37 °C prior to plasma ultrafiltration. Plasma spiked with 500 nM EC2629 or EC2491 was allowed to equilibrate at 37 °C for 30 min prior to processing. Next, 50 μL of plasma was transferred to a clean 1.2 mL plate stored at 2–8 °C for further processing. The remaining plasma sample volumes were transferred to 30 Kd MWCO PES filter to generate plasma ultrafiltrate by centrifugation at 10,000×g for 20 min. After which, 50 μL of each plasma ultrafiltrate was transferred to separate wells in a clean 1.2 mL plate. To all spiked plasma samples, 50 μL of blank plasma ultrafiltrate was added. 50 μL of blank plasma was added to all experimental ultrafiltrate samples. These blank matrix additions normalized the matrix effects for protein binding determination. Samples were then extracted using protein precipitation with a 3:1 ratio of acetonitrile after addition of internal standard. The supernatant transferred to a new plate, evaporated, and reconstituted prior to LC–MS/MS analysis.

Data set [7] can be described thus: Plasma stability, mouse. The format is in vitro ADME. The following applies: 37 °C. The procedure: (§4) Whole blood and plasma stability were determined for EC2629 and EC2491 at a concentration of 500 nM. Samples were extracted and analyzed using fit-for-purpose bioanalytical methods. EC2629 or EC2491 was spiked into 1 mL whole blood or plasma maintained at 37 °C for 30 min prior to use . Fifty µl aliquots were then removed at defined timepoints and stored in a 1.2 mL extraction plate prior to analysis. Samples were then extracted using protein precipitation with a 3:1 ratio of acetonitrile after addition of internal standard. The supernatant was then transferred to a new plate, evaporated, and reconstituted prior to LC–MS/MS analysis.

Data set [8] can be described thus: Whole blood stability, rat. The format is in vitro ADME. The following applies: 37 °C, after two hours, read-out: percent remaining in whole blood. How it is done:
as §4

Data set [9] is described as follows: Whole blood stability, dog. In kind it is in vitro ADME. The following applies: 37 °C, after two hours, read-out: percent remaining in whole blood. How it is done:
as §4

The nature of data set [10]: Liver microsome stability assay, rat. The format is in vitro ADME. The following applies: 1 µM; for percent of compound remaining: male rat liver microsomes, 37 °C. How it is done: (§5) Appropriate microsomes (XenoTech) were incubated with EC2491 in the presence or absence of NADPH regenerating system (Corning Gentest) at 37 °C. Incubations with NADPH contained 352.5 μL DI water, 100 μL 0.5 M potassium phosphate buffer, pH 7.4, 25 μL NADPH solution A, […], and 12.5 μL of the appropriate microsomes. Incubations without NADPH contained 382.5 μL water, 100 μL 0.5 M potassium phosphate buffer, pH 7.4, and 12.5 μL of the appropriate microsomes. 50 μL aliquots were withdrawn at various time points and mixed with internal standard, EC3044 (Endocyte) in acetonitrile. After mixing and evaporation of the acetonitrile, the samples were reconstituted. The samples were mixed, centrifuged, and 100 μL of supernatant was transferred to a new plate prior to LC–MS/MS analysis.

Data set [11] in a line: Plasma stability, dog. In kind it is in vitro ADME. Particulars: 37 °C. The procedure:
as §4

Data set [12] can be described thus: Stability in phosphate buffer pH 7.4. Particulars: 1 µM, 0.1 M phosphate buffer, pH 7.4, up to 1 h at 37 °C. The format is physicochemical. The procedure:
The in vitro metabolic stability of EC2491 was evaluated using rat, dog, and human liver microsomes in the presence and absence of NADPH. Stability of EC2491 was also evaluated in phosphate buffer, pH 7.4, under the incubation conditions (see Fig. 7a). EC2491 (1 µM) is stable in 0.1 M phosphate buffer, pH 7.4 up to 1 h at 37 °C. When EC2491 (1 µM) is incubated with male rat, dog, and human microsomes in the absence of NADPH, there is some depletion of the compound such that approximately 63%, 56%, and 49% of the compound remains after 1 h in rat, dog, and human microsomes, respectively. […] In the presence of NADPH male rat liver microsomes metabolize EC2491 rapidly such that only 2% of the compound remains in the incubation mixture at the end of 1 h. Male dog and human liver microsomes metabolize EC2491 somewhat slowly (22% and 18% remaining at the end of 1 h respectively). This is indicative of CYP-mediated metabolism of EC2491.

Data set [13] can be described thus: Liver microsome stability assay, human. Particulars: 1 µM, human liver microsomes, 37 °C. In kind it is in vitro ADME. How it is done:
as §5
(In general: Microsomes from liver hold many membrane-bound enzymes, among them those of drug oxidation.)

The nature of data set [14]: Whole blood stability, mouse. The format is in vitro ADME. The following applies: 37 °C, after two hours, mouse whole blood, read-out: percent remaining in whole blood. How it is done: as §4
Data set [15] in a line: Whole blood stability, human. In kind it is in vitro ADME. The following applies: 37 °C, after two hours, human whole blood, read-out: percent remaining in whole blood. How it is done: as §4
Data set [16] in a line: Plasma stability, rat. In kind it is in vitro ADME. Particulars: 37 °C. The procedure:
as §4

Data set [17] can be described thus: Liver microsome stability assay, dog. The format is in vitro ADME. Particulars: 1 µM; for percent of compound remaining: 37 °C. The procedure: as §5
Data set [18] has as its system KB-CR tumors. The data set can be described thus: Cisplatin-resistant KB-CR tumor xenograft in nu/nu mice. The format is in vivo. How it is done:
as §3, §2

[19] abbreviates: Paclitaxel 15 mg/kg SIW x 2 weeks, n=7.
The mark [20] stands for this setting: paclitaxel 15 mg/kg SIW x 2 weeks.
Setting [21] is: Paclitaxel 20 mg/kg TIW x 2 weeks, n=5.
The mark [22] stands for this setting: Paclitaxel 15 mg/kg SIW x 2 weeks, n=3.
Where [23] appears, read: Eribulin mesylate 1 mg/kg SIW x 2 weeks, n=7.
Setting [24] is: Cisplatin 3 mg/kg BIW x 2 weeks, n=5.

Counter-ions that a name gives are not always drawn.

For `CC(=O)O[C@H]1C(=O)[C@@]2(C)[C@H]([C@H](OC(=O)c3ccccc3)[C@]3(O)C[C@H](OC(=O)[C@H](O)[C@@H](NC(=O)c4ccccc4)c4ccccc4)C(C)=C1C3(C)C)[C@]1(OC(C)=O)CO[C@@H]1C[C@@H]2O` [paclitaxel], the “CR (complete response), number of animals” value (“CR (complete response)” for short) in data set [1] (setting [19]), in data set [2] (setting [21]) and in data set [3] (setting [22]) was 0 throughout. Moreover, the “Cures, number of animals” value in data set [1] (setting [19]), in data set [2] (setting [21]) and in [3] (setting [22]) was 0 throughout. Besides, the “PR (partial response), number of animals” value in [1] (setting [19]), in [2] (setting [21]) and in [3] (setting [22]) was 0 in each case. The antitumor effect result in data set [1] (setting [20]) was “essentially inactive”; in [2] (paclitaxel 20 mg/kg TIW x 2 weeks), “very little effect”; in data set [3] (setting [20]) it was “modest tumor growth delay”.
`C=C1C[C@@H]2CC[C@@]34C[C@H]5O[C@H]6[C@@H](O3)[C@H]3O[C@H](CC[C@@H]3O[C@H]6[C@H]5O4)CC(=O)C[C@@H]3[C@@H](OC)[C@@H](C[C@H](O)CN)O[C@H]3C[C@H]3O[C@@H](CC[C@@H]1O2)C[C@@H](C)C3=C` [eribulin mesylate]: the “CR (complete response)” value in [4] (setting [23]) and in data set [5] was 0 in each case. In addition, the “Cures, number of animals” value in [4] (setting [23]) and in data set [5] was 0 in each case. For the same molecule, the “PR (partial response), number of animals” value in data set [4] (setting [23]) is reported as “one”; in data set [4] (Eribulin mesylate 1 mg/kg SIW x 2 weeks, n=7, listed as Eribulin mesylate) it was 1; in [5], “two”; in data set [5] (listed as Eribulin mesylate), 2. Moreover, in data set [4] (eribulin mesylate 1 mg/kg SIW x 2 weeks), the antitumor activity entry was “did not display significant anti-tumor activity”.
Take `C=C1C[C@H]2C=Nc3cc(OCCCCCOc4cc5c(cc4OC)C(=O)N4CC(=C)C[C@H]4C=N5)c(OC)cc3C(=O)N2C1` [EC2491]: in data set [6], the fraction unbound at 30 min, 500 nM lay in the range of 0.02 to 0.05. Further, the “time stable in plasma” value in data set [7], in data set [11] and in [16] was “greater than 24 h” throughout. Besides, the amount remaining at 2 h, 500 nM in [8] was 95.6%; in data set [9], 63.1%; in data set [14], 87.3%; in data set [15], 80.6%. Also, the “metabolism in CYP3A induced microsomes versus corn-oil treated controls” value is listed as “more rapid metabolism” in data set [10] (dexamethasone-treated male rat liver microsomes, + NADPH) and “more rapid metabolism” in data set [17] (rifampin-treated dog liver microsomes, + NADPH). The “percent of compound remaining” value was “approximately 63%” in [10] (absence of NADPH, after 1 h); 2% in [10] (presence of NADPH, end of 1 h); about 49% in [13] (absence of NADPH, after 1 h); 18% in data set [13] (presence of NADPH, end of 1 h); about 56% in [17] (dog liver microsomes, absence of NADPH, after 1 h); 22% in data set [17] (male dog liver microsomes, presence of NADPH, end of 1 h). The stability in buffer entry in data set [12] is reported as “stable”.
On to `N.N.[Cl][Pt][Cl]` [cisplatin], for which, in data set [18] (setting [24]), the “CR (complete response)” value is given as 0; the “Cures, number of animals” value is recorded as 0; the “PR (partial response), number of animals” value stood at 0. For the same molecule, the antitumor effect entry in [18] (cisplatin 3 mg/kg BIW x 2 weeks) is “very little effect”.

Usually amount remaining stands for what is left of the initial amount, in per cent.

(Values after article PMC7391724 (Scientific Reports, 2020).)
